The text below walks through data of patent US8222279B2, “Small molecule insulin mimetics absent quinones” (Duke University, priority 2006, dated 2012).

For one assay, the target named is T1, human insulin receptor (Homo sapiens, UniProt P06213).
T1 construct: expressed in transfected cells; host or cells: CHO-IR (Chinese hamster ovary cells)
In words: Insulin receptor autophosphorylation (phosphotyrosines 1162/1163) immunoblot in CHO-IR cells. The assay is classed as cell-based. The conditions noted are these: increasing concentrations, 10 min at 37° C., immunoblot not shown. The text has this: These compounds were examined in a cell-based assay for their ability to mimic the action of insulin. In this case, Chinese hamster ovary (CHO) cells stably transfected with a gene for human insulin receptor and expressing it on their surface were used. CHO-IR cells were stimulated with increasing concentrations of insulin, LDIV122 (same as 198), LDIV148 (same as 196), ZL-196 (an insulin mimic that includes a quinone), and LDIV99 (same as 194). Whole-cell lysates were immunoblotted with antibodies to phosphotyrosines 1162 and 1163 that lie on the activation loop in the beta-subunit of the insulin receptor.
Materials. Antibodies to tyrosine phosphorylated IR(Tyr1162/Tyr1163) are from BioSource (Camarillo, Calif.).
CHO-IR cells (Chinese hamster ovary cells overexpressing the β isoform insulin receptor) were cultured in Ham's F12 supplemented with 10% FCS, 2 mM glutamax and gentamicin at 37° C. in a 5% CO2 atmosphere. Cells were serum starved for 72 h in 12-well plates, then stimulated with increasing concentrations of insulin or compounds in KRP-Hepes for 10 min at 37° C. The cells are washed with ice-cold phosphate-buffered saline and solubilized in 2×SDS-sample buffer (50 mM Tris-HCl, pH 7.4, 5% glycerol, 2% SDS, 0.005% bromophenol blue) containing 2 mM sodium orthovanadate and 200 mM sodium fluoride. […]
In general terms: In western blotting, separated proteins are transferred to a membrane and probed.

The test system of assay [1] is differentiated PC12 neurons. In words: Protection of differentiated PC12 neurons from apoptotic cell death induced by NGF withdrawal. The conditions noted are these: 100 ng/ml NGF; 48 h; control cells 64±1%. The class given is cell-based. How it is done: A library of asterriquinones was screened using a 96-well ELISA assay that detects phosphorylated TrkA, the NGF receptor. We identified many compounds from this library that activated TrkA in CHO cells. The library was also screened for dose-dependent cytotoxicity in these cells. From these assays, we selected two compounds 1H5 and 5E5 for further study based on NGF agonist activity and low toxicity. […] 1H5 at 30 μM has 49±4% the effect of 100 ng/ml NGF. […] Despite this, 1H5 can protect differentiated PC12 neurons from apoptotic cell death induced by NGF withdrawal for 48 h. Cell death is 64±1% in control PC12 cells, 52±3% in cell treated with 30 μM 1H5, and 18±6% in cells treated with 100 ng/ml NGF. […] 5E5 at 30 μM has 212±11% the effect of 100 ng/ml NGF on CHO-Trk cells. It is non-toxic at concentrations up to 10 μM. […] 5E5 also causes phosphorylation of FRS2/SNT, a differentiation-specific target of NGF in neurons and PC12 cells (2.7-fold v.s. NGF).

T1 sequence (P06213 763-1382 limits assumed): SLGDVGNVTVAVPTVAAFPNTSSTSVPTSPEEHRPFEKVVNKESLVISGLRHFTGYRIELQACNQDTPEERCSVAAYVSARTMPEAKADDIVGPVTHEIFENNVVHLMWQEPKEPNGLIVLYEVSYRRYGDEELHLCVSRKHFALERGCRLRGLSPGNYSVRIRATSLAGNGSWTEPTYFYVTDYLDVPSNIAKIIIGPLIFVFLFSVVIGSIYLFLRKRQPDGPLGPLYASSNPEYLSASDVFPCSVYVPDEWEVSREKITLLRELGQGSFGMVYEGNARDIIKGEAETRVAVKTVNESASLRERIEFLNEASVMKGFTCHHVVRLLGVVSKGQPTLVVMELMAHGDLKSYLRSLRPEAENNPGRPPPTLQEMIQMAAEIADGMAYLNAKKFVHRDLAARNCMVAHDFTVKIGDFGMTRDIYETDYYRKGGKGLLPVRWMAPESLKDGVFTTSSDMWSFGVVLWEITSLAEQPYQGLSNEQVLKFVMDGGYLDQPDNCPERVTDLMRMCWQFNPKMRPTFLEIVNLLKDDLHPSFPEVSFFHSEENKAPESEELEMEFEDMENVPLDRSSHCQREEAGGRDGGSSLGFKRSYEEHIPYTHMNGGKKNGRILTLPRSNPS
T1 sequence (P06213 28-758 partner limits assumed): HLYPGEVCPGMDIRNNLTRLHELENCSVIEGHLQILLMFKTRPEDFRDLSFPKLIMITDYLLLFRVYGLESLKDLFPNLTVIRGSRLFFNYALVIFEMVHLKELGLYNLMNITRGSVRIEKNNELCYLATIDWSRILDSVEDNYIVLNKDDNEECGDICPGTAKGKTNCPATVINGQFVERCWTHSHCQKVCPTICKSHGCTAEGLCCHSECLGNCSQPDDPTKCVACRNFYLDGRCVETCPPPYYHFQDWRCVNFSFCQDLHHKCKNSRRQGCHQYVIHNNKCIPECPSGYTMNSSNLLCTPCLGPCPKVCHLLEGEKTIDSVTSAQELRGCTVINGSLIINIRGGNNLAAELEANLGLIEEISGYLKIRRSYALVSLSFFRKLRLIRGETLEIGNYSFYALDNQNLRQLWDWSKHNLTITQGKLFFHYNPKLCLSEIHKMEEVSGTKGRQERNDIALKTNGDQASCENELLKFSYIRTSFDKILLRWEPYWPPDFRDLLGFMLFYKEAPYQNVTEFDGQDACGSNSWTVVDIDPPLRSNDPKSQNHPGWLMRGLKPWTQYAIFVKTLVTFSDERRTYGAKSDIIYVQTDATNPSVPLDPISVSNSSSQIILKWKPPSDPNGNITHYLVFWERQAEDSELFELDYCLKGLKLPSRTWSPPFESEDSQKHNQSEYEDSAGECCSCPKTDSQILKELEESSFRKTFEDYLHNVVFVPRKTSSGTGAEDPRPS

`CC(C)=CCc1cccc2c(-c3oc(CO)cc(=O)c3O)c[nH]c12` [LDIV99, 3-Hydroxy-6-hydroxymethyl-2-[7-(3-methyl-but-2-enyl)-1H-indol-3-yl]-pyran-4-one]: the “Autophosphorylation of the insulin receptor” value on human insulin receptor is listed as “dose-dependent autophosphorylation”.

Consider `CC(C)=CCc1cccc2c(-c3c(O)c(=O)cc(CO)n3C)c[nH]c12` [LDIV148, 3-Hydroxy-6-hydroxymethyl-1-methyl-2-[7-(3-methyl-but-2-enyl)-1H-indol-3-yl]-pyridin-4-one], for which the “Autophosphorylation of the insulin receptor” value on human insulin receptor is given as “dose-dependent autophosphorylation”.

“NGF: nerve growth factor, ligand of TrkA, used as reference at 100 ng/ml” yielded a Cell death in assay [1] of 18±6%.
